In patent publication US20210292755A1, “NOVEL DOUBLE-STRANDED OLIGONUCLEOTIDES FOR THE TREATMENT OF CANCER” (SELEXEL, priority 2016, published 2021):
“Also recorded” adds a separate entry of the source.

Experiments:
[1] = siRNA distribution by RT-qPCR, continuous subcutaneous osmotic pump; type: in vivo; conditions: 2 mg/kg/day continuous subcutaneous, 3 days, 22RV1 tumor-bearing mice; 10 mM citrate buffer pH 6 with oxidized LDL (1:0.1 weight:weight) versus 154 mM NaCl
Description: To quantify a siRNA in the biological samples, the inventors have developed a reverse transcription method followed by a quantitative PCR (RT-qPCR). For each siRNA, a specific stem-loop primer, having 8 overflowing nucleotides is synthesized, the 8 nucleotides being complementary to the 8 nucleotides of the 3′ end of the siRNA guide (antisense) strand. After a reverse transcription step, the product obtained is amplified by PCR using two primers, one hybridizing with the region corresponding to the loop of the reverse transcription primer. The 12 nucleotides at 3′ of the second primer having a DNA sequence corresponding to the 12 nucleotides of the 5′ end of the newly synthesized cDNA after reverse transcription of the siRNA guide strand. Detection of the amplification is carried out continuously by the degradation of a Taqman fluorescent probe or by incorporation of SybrGreen.
A range of double stranded siRNAs, from 10^3 to 10^9 copies in the RT reaction, diluted in water is made and treated together with the samples by RT-qPCR.
The biological samples in which siRNAs are quantified are either serum or total RNAs extracted from tissue fragments of known weight assumed to contain siRNA. […]
At the end of the experiment, the animals are sacrificed, the serum, the tumors and different tissues are dissected, the extracted RNAs and the siRNAs present in these RNAs are quantified. […]

human AR mRNA = experiment: AR mRNA in tibia of 22RV1 tumor-bearing mice; type: in vivo; conditions: Nude mice with 22RV1 tumors, 0.2 mg/kg/day continuous subcutaneous, 3 weeks, in 154 mM NaCl
Description: Left panel: Expression level of human AR mRNA in nude mouse tibia carrying 22RV1 human prostate tumors in vehicle-treated mice (154 mM NaCl, black bar) or siARH2AX-1 diluted in this vehicle (gray bar) and administered subcutaneously continuously for 3 weeks (mean±SEM, n=7 values relative to the mean value of the NaCl group).
(§1) Tumors are obtained by subcutaneous injection of tumor cells into the flank of Nude mice. Only animals on which tumor uptake is found are included in the study and randomized to receive treatment or control treatment.
When indicated, the continuous administration of siRNA is carried out by implantation of an Alzet osmotic pump subcutaneously on the back of the mice, on the opposite side to the tumor when the mice wear one. […]
(§2) At the end of the experiment, the animals are sacrificed, the serum, the tumors and different tissues are dissected, the extracted RNAs and the siRNAs present in these RNAs are quantified.
(§3) In the experiment shown in FIG. 14, 22RV1 cells were implanted in Nude mice. Once the tumor was detected, Alzet pumps administering either 0.2 mg/kg/day siARH2AX-1 siRNA formulated in saline (154 mM NaCl), or the vehicle alone, were implanted for 3 weeks. At the end of treatment, the bones (tibia) were recovered to quantify siARH2AX-1, and the androgen receptor- and the HPRT-encoding mRNAs of human origin.

γH2AX [2] = experiment: Indirect immunofluorescence of γH2AX, bleomycin-treated transfected cells; type: cell-based, human; conditions: 72 hours after transfection
Description: (§4) FIG. 8: Immuno detection of γH2AX (first column) and 53BP1 (second column) in C4-2 cells treated for 6 h with bleomycin ([…]) or the vehicle added 72 h after transfection of cells by a control siRNA (Cont), siAR7 siRNA, or siARH2AX-1.
(§5) All the cells used in the following examples are human cells and express H2AX.
(§6) The cells are cultured in DMEM or RPMI supplemented with 10% fetal calf serum, or as recommended by the ATCC. When indicated, they are transfected with siRNA using lipofectamine (Life Technologies), following the supplier's protocol. The number of living cells after the indicated treatments was quantified by measuring their metabolic activity by the WST1 test according to the supplier's indications (Roche).
(§7) The effect of siRNA transfection and/or treatments by different chemotherapeutic agents on gene expression was measured: • by RT-qPCR quantification of mRNAs extracted by a conventional phenol-chloroform method (Trizol). The amount of RNA was normalized by measuring the cyclophilin A-encoding mRNA which is not regulated by AR (delta delta CT method). • by Western blotting on protein extracts. The antibodies used are: AR: Santacruz, N-20 sc-816; H2AX: Merck Millipore ref 07-627; Tubulin: Sigma T6199; Actin: Merck Millipore MAB 1501; γH2AX: Merck Millipore 05-636. […] The antibodies used are the following: γH2AX: Merck Millipore 05-636; 53BP1: Novus, NB 100-304.
(§8) In the experiment shown in FIG. 8, C4-2 cells were transfected with a control or siARH2AX-1 siRNA. 72 hours after transfection, the cells were then treated for 6 hours with […] of bleomycin or the corresponding vehicle.

[3] = system: 22RV1 human prostatic tumor; experiment: Subcutaneous tumor volume in mice; type: in vivo; conditions: 2 mg/kg/day
Description: as §1
(§9) When indicated, the continuous administration of siRNA is carried out by implantation of an Alzet osmotic pump subcutaneously on the back of the mice, on the opposite side to the tumor when the mice wear one. The concentration of siRNA in the pump is adjusted to deliver the indicated amount in mg/kg/day taking into account the pump flow rate indicated by the manufacturer.
The subcutaneous tumors volume is estimated by measuring with a calliper the largest (D), the smallest (d) diameter of the tumors and their height (h). The volume is calculated by the formula V=D×d×h×Pi/6.

AR-encoding mRNA = experiment: RT-qPCR of AR-encoding mRNA after siRNA transfection; type: cell-based, human; conditions: for AR mRNA expression: both lines
Description: as §5, §6, §7

[4] = system: 22RV1 human prostate tumors; experiment: Bone metastases of 22RV1 tumors in Nude mice (human HPRT mRNA); type: in vivo; conditions: 0.2 mg/kg/day continuous subcutaneous, 3 weeks, in 154 mM NaCl
Description: Right panel: Metastatic load in bone as measured by the expression of human HPRT mRNA in both groups of animals. Each bar represents bone metastatic load in a mouse.
as §1, §9, §2, §3

γH2AX [5] = experiment: Western blot of γH2AX after siRNA transfection; type: cell-based, human; conditions: PC3 cells, 72 hours after transfection
Description: as §5, §6, §7

PSA-encoding mRNA = experiment: RT-qPCR of PSA-encoding mRNA after siRNA transfection; type: cell-based, human; conditions: LNCaP or C4-2 cells, both lines, 72 hours after transfection
Description: as §5, §6, §7
In the experiment shown in FIG. 4, the LNCaP or C4-2 tumor cells were transfected with the following siRNAs: Cont, siAR7 or siARH2AX-1.

WM266-4 cells = experiment: WST1 cell viability test; type: cell-based, human
Description: as §5, §6

C4-2 cells = experiment: WST1 cell viability test; type: cell-based, human
Description: as §5, §6

LNCaP cells = experiment: WST1 cell viability test; type: cell-based, human
Description: as §5, §6

U87 cells = experiment: WST1 cell viability test; type: cell-based, human; conditions: 72 hr after transfection
Description: as §5, §6

MDA MB-453 cells = experiment: WST1 cell viability test; type: cell-based, human; conditions: 72 hr after transfection
Description: as §5, §6

22RV1 cells = experiment: WST1 cell viability test; type: cell-based, human; conditions: 72 hr after transfection
Description: as §5, §6

MDA MB231 cells = experiment: WST1 cell viability test; type: cell-based, human
Description: as §5, §6

53BP1 = experiment: Indirect immunofluorescence of 53BP1, bleomycin-treated transfected cells; type: cell-based, human
Description: as §4, §5, §6, §7, §8

AR = experiment: Western blot of AR after siRNA transfection; type: cell-based, human; conditions: C4-2 cells, 72 h after transfection
Description: as §5, §6, §7

H2AX = experiment: Western blot of H2AX after siRNA transfection; type: cell-based, human
Description: as §5, §6, §7

H2AX-encoding mRNA = experiment: RT-qPCR of H2AX-encoding mRNA after siRNA transfection; type: cell-based, human
Description: as §5, §6, §7

[6] = C4-2 cells, 48 hours after transfection, relative to control siRNA
[7] = 40 μl of etoposide added 24 hours after transfection, WST1 48 h later

siARH2AX-1: bispecific AR-H2AX siRNA, SEQ ID NO: 1 GACUCAGCUGCCCCAUCCA[dT][dT] and SEQ ID NO: 2 UGGAUGGGGCAGCUGAGUC[dT][dT] (chain 1 GACUCAGCUGCCCCAUCCANN; chain 2 UGGAUGGGGCAGCUGAGUCNN; 3' dTdT overhangs, chemistry not fully specified)
concentration of siARH2AX-1 in serum, different organs and tumors [1]: increases the concentration
expression of the androgen receptor in the bones (tibia) (human AR mRNA): inhibit the expression of the androgen receptor
expression of H2AX (immunofluorescence) (γH2AX [2]; C4-2 cells, without bleomycin, compared to control condition): very small compared to the control condition
γH2AX labeling after bleomycin (γH2AX [2]; siRNA-transfected C4-2 cells, bleomycin 6 hours): no increase H2AX
tumor development, combination with etoposide ([3]; siARH2AX-1 2 mg/kg/day continuous subcutaneous plus etoposide intraperitoneal): potentiates the effect of these two treatments taken separately; also recorded: amplifies tumor growth inhibition
tumor development ([3]; siARH2AX-1 2 mg/kg/day continuous subcutaneous, 22 days, 10 mM citrate buffer pH 6 with 10 mM MgCl2): as effective as the high dose of etoposide; also recorded: effectively inhibits tumor development
AR expression (mRNA) (AR-encoding mRNA; [6]): inhibit AR expression in a similar manner
AR mRNA expression (AR-encoding mRNA; LNCaP or C4-2 cells, 72 hours after transfection): inhibit the expression of AR and PSA
AR mRNA expression (AR-encoding mRNA; LNCaP or MDA MB-453 cells, 72 h after transfection): inhibits the expression of the two AR- and H2AX-encoding mRNAs
number of mice spontaneously developing bone metastases [4]: decrease in the number of mice spontaneously developing bone metastases
size of bone metastases (human HPRT mRNA level in bone) [4]: decrease in the size of these tumors
γH2AX phosphorylated form (γH2AX [5]): inhibition of its γH2AX phosphorylated form
PSA mRNA expression (PSA-encoding mRNA): inhibit the expression of AR and PSA
cell viability, siRNA combined with etoposide (WM266-4 cells; [7]): potentiate when combined
cell viability / proliferation (WM266-4 cells; 72 hr after transfection): inhibits the proliferation of all cell lines
cell viability / proliferation (C4-2 cells; 72 hr after transfection): inhibits the proliferation of all cell lines
cell viability (C4-2 cells; 90 hours after transfection): significantly reduced
cell viability, siRNA combined with bleomycin (C4-2 cells; bleomycin (10 μM) added 48 hours after transfection, read 48 hours later, versus chemotherapeutic agent alone): potentiate to inhibit cell viability
cell viability, siRNA combined with etoposide (C4-2 cells; etoposide (10 μM) added 48 hours after transfection, read 48 hours later, versus chemotherapeutic agent alone): potentiate to inhibit cell viability
cell viability / proliferation (LNCaP cells; 72 hr after transfection): inhibits the proliferation of all cell lines
cell survival, siRNA combined with bleomycin, versus addition of the separate effects (LNCaP cells; bleomycin (10 μM)): approximately twice as inhibitory
cell viability / proliferation (U87 cells): inhibits the proliferation of all cell lines
cell viability / proliferation (MDA MB-453 cells): inhibits the proliferation of all cell lines
cell viability / proliferation (22RV1 cells): inhibits the proliferation of all cell lines
cell viability, siRNA combined with etoposide (MDA MB231 cells; [7]): potentiate when combined
cell viability / proliferation (MDA MB231 cells; 72 hr after transfection): inhibits the proliferation of all cell lines
cell viability (MDA MB231 cells; 90 hours after transfection): significantly reduced
expression of 53BP1 (53BP1; C4-2 cells, 72 hours after transfection, without bleomycin, compared to control condition): comparable
DNA repair (53BP1; conclusion from γH2AX/53BP1 experiment in C4-2 cells): inhibits DNA repair
recruitment of 53BP1 to DNA lesions after bleomycin (53BP1; siRNA-transfected C4-2 cells, 72 hours after transfection, bleomycin 6 hours): no increase H2AX or recruitment of 53BP1
AR protein expression (AR): inhibits the expression of both AR and H2AX proteins
H2AX protein expression (H2AX; C4-2 cells, 72 h after transfection): inhibits the expression of both AR and H2AX proteins
H2AX protein expression (H2AX; PC3 cells, 72 hours after transfection): is inhibited
H2AX expression (mRNA) (H2AX-encoding mRNA; [6]): much more effective than siAR2 siRNA in inhibiting H2AX expression
inhibition of H2AX mRNA expression (H2AX-encoding mRNA; LNCaP or C4-2 cells, both lines, 72 hours after transfection): more than 90%
H2AX mRNA expression (H2AX-encoding mRNA; LNCaP or MDA MB-453 cells, both lines, 72 h after transfection): inhibits the expression of the two AR- and H2AX-encoding mRNAs
